Measured values reported in ChEMBL document CHEMBL1201862, “PubChem BioAssay data set” (2004).
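Each compound was tested at five concentrations against cells in 96-well plates for 48 hours. At the GI50, growth is halved.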 Activity calls are given as the source filed them. Cut-off read from the data, not from the text of the source: active = GI50 up to about 1.1 µM and inactive = higher.

Columns and labels:
Test in all cases: growth of human tumour cells (NCI), 48 h
HCC 2998 = system: HCC 2998
NCI-H226 = system: NCI-H226
MOLT-4 = system: MOLT-4
SK-OV-3 = system: SK-OV-3
SK-MEL-2 = system: SK-MEL-2
SK-MEL-28 = system: SK-MEL-28
SK-MEL-5 = system: SK-MEL-5
DU-145 = system: DU-145
786-0 = system: 786-0
HCT-15 = system: HCT-15
ACHN = system: ACHN
U-251 = system: U-251
SN12C = system: SN12C
M14 = system: M14
CAKI-1 = system: CAKI-1
SNB-75 = system: SNB-75
OVCAR-3 = system: OVCAR-3
SF-295 = system: SF-295
SW-620 = system: SW-620
A498 = system: A498
NCI-H522 = system: NCI-H522
T47D = system: T47D
UACC-257 = system: UACC-257
NCI-H23 = system: NCI-H23
Hs-578T = system: Hs-578T
HL-60 = system: HL-60
IGROV-1 = system: IGROV-1
K562 = system: K562
A549 = system: A549
TK-10 = system: TK-10
NCI-H460 = system: NCI-H460
SNB-19 = system: SNB-19
HT-29 = system: HT-29
MDA-MB-435 = system: MDA-MB-435
CCRF-CEM = system: CCRF-CEM
SF-268 = system: SF-268
MDA-MB-231 = system: MDA-MB-231
SR = system: SR
BT-549 = system: BT-549
KM12 = system: KM12
PC-3 = system: PC-3
OVCAR-4 = system: OVCAR-4
NCI/ADR-RES = system: NCI/ADR-RES
UACC-62 = system: UACC-62
SF-539 = system: SF-539
OVCAR-8 = system: OVCAR-8
RPMI-8226 = system: RPMI-8226
LOX IMVI = system: LOX IMVI
UO-31 = system: UO-31
MDA-N = system: MDA-N
HOP-62 = system: HOP-62
OVCAR-5 = system: OVCAR-5
COLO 205 = system: COLO 205
HCT-116 = system: HCT-116
MCF7 = system: MCF7
Malme-3M = system: Malme-3M
EKVX = system: EKVX
HOP-92 = system: HOP-92
RXF 393 = system: RXF 393

## N#CC(=N)c1ncn(-c2ccccc2N)c1N
HCC 2998
  GI50: > 100 µM (inactive)
NCI-H226
  GI50: > 100 µM (inactive)
MOLT-4
  GI50: > 100 µM (inactive)
SK-OV-3
  GI50: > 100 µM (inactive)
SK-MEL-2
  GI50: > 100 µM (inactive)
SK-MEL-28
  GI50: > 100 µM (inactive)
SK-MEL-5
  GI50: > 100 µM (inactive)
DU-145
  GI50: > 100 µM (inactive)
786-0
  GI50: > 100 µM (inactive)
HCT-15
  GI50: > 100 µM
ACHN
  GI50: > 100 µM (inactive)
U-251
  GI50: > 100 µM (inactive)
SN12C
  GI50: > 100 µM (inactive)
M14
  GI50: > 100 µM (inactive)
CAKI-1
  GI50: > 100 µM (inactive)
SNB-75
  GI50: > 100 µM (inactive)
OVCAR-3
  GI50: > 100 µM (inactive)
SF-295
  GI50: > 100 µM (inactive)
SW-620
  GI50: > 100 µM (inactive)
A498
  GI50: > 100 µM (inactive)
NCI-H522
  GI50: > 100 µM (inactive)
T47D
  GI50: > 100 µM (inactive)
UACC-257
  GI50: > 100 µM (inactive)
NCI-H23
  GI50: > 100 µM (inactive)
Hs-578T
  GI50: > 100 µM (inactive)
HL-60
  GI50: > 100 µM (inactive)
IGROV-1
  GI50: > 100 µM (inactive)
K562
  GI50: > 100 µM (inactive)
A549
  GI50: > 100 µM (inactive)
TK-10
  GI50: > 100 µM (inactive)
NCI-H460
  GI50: > 100 µM (inactive)
SNB-19
  GI50: > 100 µM (inactive)
HT-29
  GI50: > 100 µM (inactive)
MDA-MB-435
  GI50: > 100 µM (inactive)
CCRF-CEM
  GI50: > 100 µM (inactive)
SF-268
  GI50: > 100 µM (inactive)
MDA-MB-231
  GI50: > 100 µM (inactive)
SR
  GI50: > 100 µM (inactive)
BT-549
  GI50: > 100 µM (inactive)
KM12
  GI50: > 100 µM (inactive)
PC-3
  GI50: > 100 µM (inactive)
OVCAR-4
  GI50: > 100 µM (inactive)
NCI/ADR-RES
  GI50: > 100 µM (inactive)
UACC-62
  GI50: > 100 µM (inactive)
SF-539
  GI50: > 100 µM (inactive)
OVCAR-8
  GI50: > 100 µM (inactive)
RPMI-8226
  GI50: > 100 µM (inactive)
LOX IMVI
  GI50: > 100 µM (inactive)
UO-31
  GI50: > 100 µM (inactive)
MDA-N
  GI50: > 100 µM (inactive)
HOP-62
  GI50: > 100 µM (inactive)
OVCAR-5
  GI50: > 100 µM (inactive)
COLO 205
  GI50: > 100 µM (inactive)
HCT-116
  GI50: > 100 µM (inactive)
MCF7
  GI50: > 100 µM (inactive)
Malme-3M
  GI50: > 100 µM (inactive)
EKVX
  GI50: > 100 µM (inactive)

## O=c1c2ccccc2nc2n1NC(c1c(Cl)cccc1Cl)N2c1cccc(Cl)c1 (stereo not given)
HCC 2998
  GI50: 4.42 µM (inactive)
NCI-H226
  GI50: 2.56 µM (inactive)
MOLT-4
  GI50: > 100 µM (inactive)
SK-OV-3
  GI50: 2.26 µM (inactive)
SK-MEL-2
  GI50: 39.1 µM (inactive)
SK-MEL-28
  GI50: 12.7 µM (inactive)
SK-MEL-5
  GI50: 16.6 µM (inactive)
DU-145
  GI50: 11.4 µM (inactive)
786-0
  GI50: 2.1 µM (inactive)
HCT-15
  GI50: 30.3 µM
ACHN
  GI50: 3.1 µM (inactive)
U-251
  GI50: 2.14 µM (inactive)
SN12C
  GI50: 4.71 µM (inactive)
M14
  GI50: 7.24 µM (inactive)
CAKI-1
  GI50: 10.8 µM (inactive)
SNB-75
  GI50: 2.64 µM (inactive)
OVCAR-3
  GI50: 10.6 µM (inactive)
SF-295
  GI50: 9.33 µM (inactive)
HOP-92
  GI50: 4.52 µM (inactive)
SW-620
  GI50: 3.32 µM (inactive)
NCI-H522
  GI50: 10.4 µM (inactive)
T47D
  GI50: 5.56 µM (inactive)
UACC-257
  GI50: 25.2 µM (inactive)
NCI-H23
  GI50: 14.6 µM (inactive)
Hs-578T
  GI50: 7.55 µM (inactive)
HL-60
  GI50: > 100 µM (inactive)
IGROV-1
  GI50: 3.34 µM (inactive)
K562
  GI50: 54.2 µM (inactive)
A549
  GI50: 5.2 µM (inactive)
TK-10
  GI50: 7.69 µM (inactive)
NCI-H460
  GI50: 5.13 µM (inactive)
SNB-19
  GI50: 4.43 µM (inactive)
HT-29
  GI50: 6.73 µM (inactive)
MDA-MB-435
  GI50: 9.35 µM (inactive)
CCRF-CEM
  GI50: > 100 µM (inactive)
SF-268
  GI50: 11.9 µM (inactive)
MDA-MB-231
  GI50: 2.79 µM (inactive)
SR
  GI50: 8.55 µM (inactive)
BT-549
  GI50: 51.4 µM (inactive)
KM12
  GI50: 7.24 µM (inactive)
PC-3
  GI50: 5.11 µM (inactive)
OVCAR-4
  GI50: 2.65 µM (inactive)
NCI/ADR-RES
  GI50: 6.44 µM (inactive)
RXF 393
  GI50: 4.78 µM (inactive)
UACC-62
  GI50: 5.86 µM (inactive)
SF-539
  GI50: 11.5 µM (inactive)
OVCAR-8
  GI50: 3.26 µM (inactive)
RPMI-8226
  GI50: 4.69 µM (inactive)
LOX IMVI
  GI50: 6.79 µM (inactive)
UO-31
  GI50: 2.38 µM (inactive)
MDA-N
  GI50: 5.22 µM (inactive)
HOP-62
  GI50: 8.38 µM (inactive)
OVCAR-5
  GI50: 4.54 µM (inactive)
COLO 205
  GI50: 8.53 µM (inactive)
HCT-116
  GI50: 3.27 µM (inactive)
MCF7
  GI50: 1.69 µM (inactive)
Malme-3M
  GI50: 8.99 µM (inactive)
EKVX
  GI50: 6.43 µM (inactive)
